Measured values taken from patent US8367004B2, “Apparatus and methods for nanoparticle generation and process intensification of transport and reaction systems” (Microfluidics International Corporation, priority 2008, dated 2013).
Where “and” joins values, the source holds several entries; their conditions need not be identical. Equal values may be shown once. One block for each molecule: values may come before it.

Key:
Format in all cases: physicochemical
[1] = Mass transfer study, octanol phase to water phase; conditions: transfer from an octanol phase to a water phase
Description: The interfacial area in process intensification equipment can be quantified by performing mass transfer studies. In particular, a solute is introduced into the system of interest (e.g. methanol and soybean oil) and the mass transfer rate of this solute from one phase to the other is measured. The interfacial area can then be calculated. In order to accomplish this determination, it is necessary to have an estimate of the mass transfer coefficients in the individual phases—which can be determined through bench-top experiments. Reactant systems may be processed in the disclosed apparatus/system and a measurement of inlet concentration of the solute is made. The system is run at different flow rates until the concentration at the outlet is equal to the equilibrium concentration. […] The interfacial area can then be obtained.

[2] = Particle size analysis of drug nanosuspensions by light scattering
Description: Crystallization experiments were performed using an exemplary reaction processor of the type depicted in FIG. 3. The solvent phase was fed into an intensifier pump using a peristaltic pump. The water phase was placed in the inlet reservoir and gravity fed. The two streams were blended at the inlet to the intensifier pump, noting that a low level of macro-mixing will occur at this process stage.
The total flow rate through the system was controlled by the microreactor design and process pressure. By varying the flow rate through the peristaltic pump at each processing pressure, various mixing ratios of the two streams were achieved. The following solvent-to-water volume ratios were examined: 1:3, 1:4, and 1:10. Equivalently, the water concentrations in the final mixture by weight were […], respectively. A total of 250 ml were processed in each experiment.
In addition to super-saturation, the effect of process pressure, NFN concentration in the solvent stream, and the presence of a surfactant were investigated. […] The concentration of NFN in DMSO varied from 5 to 20 mg NFN/ml DMSO. To determine if a surface active agent could help control particle size, a 1% aqueous solution of Suluton (BASF) was used to replace water as the anti-solvent, the concept being that the hydrophobic group of this amphoteric molecule would interact with the crystal surface at some threshold size, forming a barrier to further transport to and/or along the surface.
To provide appropriate controls for comparison, additional crystal production experiments were conducted by mixing the NFN/DMSO solution with water in a beaker at very low shear conditions. After mixing to obtain uniformity, NFN was allowed to form crystals under quiescent conditions. Size and shape characterization studies were performed. The crystals were then suspended in a saturated solution to conduct particle size reduction experiments under high shear rates using standard Microfluidizer® technology. The purpose was to compare this size reduction process on already grown crystals (“top-down” process) with the in situ process of growing crystal to the desired size with the apparatus/system of the present disclosure (“bottom-up” process).
The particle size distribution of the nano-suspensions was measured by two different methods: • (a) Light scattering using a Horiba 910 particle size analyzer: This instrument has a wide dynamic range of between 20 nm-1000 microns. • (b) Dynamic light scattering using a Malvern NanoS particle size analyzer: This instrument has a dynamic range of 0.5 nm-6 microns
(§1) Crystallization experiments using the disclosed apparatus/system were conducted at 138 and 83 MPa (20,000 and 12,000 psi) process pressures. […] The solvents were either dimethyl sulfoxide (DMSO) or N-Methyl-2-Pyrrolidone (NMP), and the antisolvent was water (see TABLE 3). Of note, alternative solvents include methanol, ethanol, acetone, dichloromethane, octanol and isopropyl alcohol, and alternative antisolvents include hexane and heptane. The water volume flow rate was typically 3-10 times the solvent volume flow rate, resulting in supersaturation between 1.4 and 9.
For the “top down” control experiments, suspensions of micron size crystals were processed with a conventional Microfluidizer® high shear processor. These crystals had been grown under no shear conditions by pouring the solvent and antisolvent streams into a beaker and then allowing the crystals to grow without stirring the fluids.
(§2) Material characterization was performed in the same manner as described above with reference to Example 1.

[3] = Electron microscopy of particle dimensions and shape
Description: A Hitachi S-4800 field-emission SEM was used to examine the surface structure and shape of the drug particles and also to verify qualitatively the particle size obtained from the particle size analyzers.
as §2

[4] = Stability of nanosuspensions
Description: as §1
A surfactant was added to the antisolvent (water) in order to: (a) stabilize the nanoparticles and limit their growth, and (b) minimize agglomeration of the particles and to thereby create a stable suspension. Two non-ionic surfactants were used, Solutol® HS 15 (polyoxyethylene esters of 12-hydroxystearic acid; […]) and a hydrophobically modified inulin polymeric surfactant, INUTEK SP1 (Orafti).

[5] = Solubility of NFN in water/DMSO mixtures (batch, gravimetric); conditions: for NFN solubility / % NFN precipitation from saturated DMSO solution: 20° C.
Description: Water was mixed with a DMSO-NFN solution of known concentration, while maintaining miscible conditions, to obtain a super-saturation state. […] The crystals were filtered from the liquid, then dried in a vacuum oven for about 10 hours at 90° C., and weighed. The filtered liquid phase was evaporated to dryness and the mass of the solid residue determined gravimetrically. The mass balance of the NFN (total amount recovered/amount dissolved) was also determined to establish precision of the solubility limit estimate. The closure was always greater than 90 percent.
(§3) The solubility data were used to estimate super-saturation ratios and the theoretical efficiency of the process, which is defined as the percentage of the drug present in the solvent that precipitates as the solvent and antisolvent streams mix.

[6] = XRD percent crystallinity and crystallite size
Description: The samples were analyzed using a Rigaku Ultima III diffractometer. XRD analysis was used to investigate the effect of the processing conditions on the crystalline characteristics, i.e., structure, percent of crystallinity and crystallite size of NFN.

[7] = Theoretical efficiency of solvent/antisolvent crystallization; conditions: 138 MPa
Text: as §3

[8] = Control (beaker, no shear), Solutol, SLS
[9] = Disclosed System, solvent, surfactant, pressure per Table 3
[10] = suspension from Disclosed System
[11] = 138 MPa, 5 mg NFN/ml DMSO, DMSO:water 1:4, passed twice, Horiba
[12] = NFN nanosuspension from disclosed system, SEM
[13] = overnight, particles produced with disclosed system
[14] = particles produced with control method

SMILES: CCOC(=O)N1CCC(=C2c3ccc(Cl)cc3CCc3cccnc32)CC1 [Loratadine]
median particle size ([2]; Disclosed System, INUTEK (DMSO), DLS): 332 nm
median particle size ([2]; Disclosed System, INUTEK (NMP), DLS): 379 nm
median particle size ([2]; Disclosed System, Solutol (DMSO), DLS): 90 nm
median particle size ([2]; Disclosed System, Solutol (NMP), DLS): 183 nm
particle size ([2]; INUTEK as surfactant): 332-379 nm
initial particle size ([2]; Solutol as surfactant, DMSO and NMP): about 90 nm
Shape ([3]; Disclosed System, INUTEK (DMSO)): Needle
Shape ([3]; Disclosed System, INUTEK (NMP)): Needle
needle length [3, 13]: 10-20 microns
needle width [3, 13]: 0.5-2 microns
needle length [3, 14]: hundreds of microns
needle width [3, 14]: tens of microns

SMILES: CC[C@H]1OC(=O)[C@H](C)[C@@H](O[C@H]2C[C@@](C)(OC)[C@@H](O)[C@H](C)O2)[C@H](C)[C@@H](O[C@@H]2O[C@H](C)C[C@H](N(C)C)[C@H]2O)[C@](C)(O)C[C@@H](C)CN(C)[C@H](C)[C@@H](O)[C@]1(C)O [Azithromycin]
median particle size [2, 9]: 50-100 nm
Shape ([3]; Disclosed System): Spheroidal
stability of nanosuspension ([4]; in solvent and antisolvent mixture, and in water after solvent removed): stable
Stability [4, 10]: Stable

Second part, the molecule after the results:

interfacial transfer coefficients [1]: ≤ 0.5 m/s
SMILES: CC(=O)Oc1ccccc1C(=O)O [aspirin]

Median Particle Size (needle length) [2, 8]: 20,000 nm
Median Particle Size (needle width) [2, 8]: 5000 nm
median particle size ([2]; Control with site reduction after 25 passes, SLS): 1200 nm
particles by volume in the range of 2.5-6 microns ([2]; Disclosed System): about 5%
larger peak of bimodal particle size distribution ([2]; Disclosed System, SLS): about 1 micron
smaller peak of bimodal particle size distribution ([2]; Disclosed System, SLS): about 340 nm
median particle size [2, 9]: 767 nm
needle length ([2]; control conditions (beaker)): about 20 microns
needle width ([2]; control conditions (beaker)): about 5 microns
population of particles with sizes in the range of 4-6 microns ([2]; control sample after 25 passes): about 5%
median particle size ([2]; control sample after 25 passes through standard Microfluidizer processor): 1.2 microns
Shape ([3]; Control): Needle
Stability ([4]; Control): Stable
Stability ([4]; Control with site reduction after 25 passes): Stable
Stability [4, 10]: Stable
Stability ([4]; suspension from Disclosed System, listed as oxycarbazepine): stable
SMILES: NC(=O)N1c2ccccc2CC(=O)c2ccccc21 [Oxycarbazepine]

NFN solubility ([5]; 0.00 wt % water in water/DMSO solution): 21.00 mg drug/g solution
% NFN precipitation from saturated DMSO solution ([5]; 0.00 wt % water): 0.00%
NFN solubility ([5]; 9.17 wt % water in water/DMSO solution): 7.18 mg drug/g solution
% NFN precipitation from saturated DMSO solution ([5]; 9.17 wt % water): 43.39%
NFN solubility ([5]; 28.04 wt % water in water/DMSO solution): 1.57 mg drug/g solution
NFN solubility ([5]; 47.62 wt % water in water/DMSO solution): 0.86 mg drug/g solution
% NFN precipitation from saturated DMSO solution ([5]; 47.62 wt % water): 91.43%
% of NFN that precipitates ([5]; 50 wt % water): about 92%
NFN solubility ([5]; 57.69 wt % water in water/DMSO solution): 0.64 mg drug/g solution
% NFN precipitation from saturated DMSO solution ([5]; 57.69 wt % water): 92.86%
NFN solubility ([5]; 73.17 wt % water in water/DMSO solution): 0.71 mg drug/g solution
% NFN precipitation from saturated DMSO solution ([5]; 73.17 wt % water): 89.52%
NFN solubility ([5]; 90.19 wt % water in water/DMSO solution): 0.00 mg drug/g solution
% NFN precipitation from saturated DMSO solution ([5]; 90.19 wt % water): 100.00%
solubility limit of NFN in DMSO ([5]; ambient temperature): about 21 mg NFN/g DMSO
reduction of NFN solubility ([5]; dilution of DMSO solution to 28 wt % water): over 13 times
median particle size ([2]; 60 MPa, 10 mg/ml DMSO, DMSO:water 1:4, passed twice): approximately 320 nm
median particle size [2, 11]: 186 nm
peak of particle size distribution [2, 11]: 166 nm
median particle size ([2]; 138 MPa, DMSO:water 1:4, passed twice, 5 mg NFN/g DMSO): approximately 190 nm
median particle size ([2]; 138 MPa, DMSO:water 1:4, passed twice, 20 mg NFN/g DMSO): ~340 nm
median particle size ([2]; 140 MPa, 10 mg/ml DMSO, DMSO:water 1:4, passed twice): about 200 nm
median particle size ([2]; NFN nanosuspensions, range over all Example 1 experiments): 170-350 nm
median particle size ([2]; control crystals after 30 passes at 207 MPa in standard Microfluidizer (top-down)): 428 nm
median particle size ([2]; with Suluton surfactant): 204 nm
median particle size ([2]; without surfactant): 209 nm
needle length [3, 12]: 200-300 nm
needle width [3, 12]: 70-100 nm
particle length ([3]; crystallized in low shear environment (control)): up to 1 mm
Average Crystallite Size ([6]; As purchased): 441 Å
Percent Crystallinity (±4%) ([6]; As purchased): 84.1%
Average Crystallite Size ([6]; Re-crystallized (high shear)): 239 Å
Percent Crystallinity (±4%) ([6]; Re-crystallized (high shear)): 79.7%
Average Crystallite Size ([6]; Re-crystallized (low shear)): 275 Å
Percent Crystallinity (±4%) ([6]; Re-crystallized (low shear)): 78% and 77.8%
Average Crystallite Size ([6]; Re-crystallized (no shear)): 727 Å
Percent Crystallinity (±4%) ([6]; Re-crystallized (no shear)): 85% and 85.1%
theoretical efficiency (percentage of NFN that precipitates) ([7]; supersaturation ratio about 1.5): 32%
theoretical efficiency (percentage of NFN that precipitates) ([7]; supersaturation ratio about 7): 85%
SMILES: CCn1cc(C(=O)O)c(=O)c2cc(F)c(N3CCNCC3)cc21 [NFN, Norfloxacin]
